In article PMC9828467 (Chemmedchem, 2022):

Key:
[1] = target: Plasmin from human plasma (Homo sapiens, UniProt P00747); assay: Plasmin inhibition assay with chromogenic substrate S-2251; assay type: biochemical; conditions: ratio to Ki of monovalent AMB
[2] = test system: plasmin; conditions: cited from earlier work

Plasmin from human plasma, sequence (P00747 581-810 limits assumed): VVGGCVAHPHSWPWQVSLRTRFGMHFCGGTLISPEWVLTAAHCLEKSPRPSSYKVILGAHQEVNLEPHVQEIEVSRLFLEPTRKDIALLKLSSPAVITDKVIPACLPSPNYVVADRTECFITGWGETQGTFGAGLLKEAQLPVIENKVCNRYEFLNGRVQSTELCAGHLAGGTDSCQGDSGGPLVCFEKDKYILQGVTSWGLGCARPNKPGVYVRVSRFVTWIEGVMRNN
Plasmin from human plasma, sequence (P00747 98-580 partner limits assumed): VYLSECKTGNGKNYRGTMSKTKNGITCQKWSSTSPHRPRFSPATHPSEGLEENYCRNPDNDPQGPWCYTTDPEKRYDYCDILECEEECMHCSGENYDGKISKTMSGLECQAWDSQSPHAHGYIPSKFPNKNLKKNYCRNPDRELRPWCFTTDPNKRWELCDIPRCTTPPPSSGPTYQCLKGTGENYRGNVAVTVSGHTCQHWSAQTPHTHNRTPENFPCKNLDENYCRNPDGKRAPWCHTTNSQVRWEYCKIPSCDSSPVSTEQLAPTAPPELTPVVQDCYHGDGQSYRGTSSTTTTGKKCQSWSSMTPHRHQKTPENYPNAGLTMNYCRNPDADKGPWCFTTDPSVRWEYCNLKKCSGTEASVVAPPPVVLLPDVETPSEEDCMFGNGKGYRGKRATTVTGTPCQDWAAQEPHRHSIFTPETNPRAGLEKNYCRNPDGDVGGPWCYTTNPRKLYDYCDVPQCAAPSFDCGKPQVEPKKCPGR

Row | SMILES | rp: relative potency = Ki AMB/Ki multi [1] | Fold stronger plasmin inhibitor than the strongest monovalent benzamidine [2] [fold]
1 | N=C(N)c1ccc(OCCCCCOc2ccc(C(=N)N)cc2)cc1 [Pentamidine, reference compound] | 664.3 | 13
2 | N=C(N)c1ccc(CNC(=O)CCOCCOCCOCCOCCNC(=O)CN(CC(=O)NCCOCCOCCOCCOCCC(=O)NCc2ccc(C(=N)N)cc2)CC(=O)NCCOCCOCCOCCOCCC(=O)NCc2ccc(C(=N)N)cc2)cc1 [Tri‐PEG4−AMB] | 27.6 | –
3 | COCCOCCOCCOCCOCCOCCOCCOCCOCCOCCOCCOCCOCCC(=O)NCc1ccc(C(=N)N)cc1 [m‐dPEG12−AMB] | 3.9 | –
4 | COCCOCCOCCOCCOCCOCCOCCOCCOCCOCCOCCOCCOCCOCCOCCOCCOCCOCCOCCOCCOCCOCCOCCOCCOCCC(=O)NCc1ccc(C(=N)N)cc1 [m‐dPEG24−AMB] | 2.7 | –
